tested on: HBsAg; test: HBsAg assay (CLIA) in HepG2.2.15 cells; format: cell-based, HBV; details: Hepatitis B virus, HepG2.2.15, read-out: IC50 (HBsAg secretion)
Procedure: HepG2.2.15 cells (Acs et al. Proc Natl Acad Sci USA, 84, (1987), 4641-4), a constitutively HBV-expressing cell line were cultured in DMEM+Glutamax-I medium (Invitrogen, Carlsbad, Calif., USA), supplemented with 10% fetal bovine serum (Invitrogen) and G418 (Invitrogen) at a final concentration of 200 mg/L and maintained in 5% CO2 at 37° C.
HepG2.2.15 cells were seeded in duplicate into white, 96-well plates at 1.5×10^4 cells/well. The cells were treated with a three-fold serial dilution series of the compounds in DMSO. The final DMSO concentration in all wells was 1% and DMSO was used as no drug control.
The HBsAg chemiluminescence immunoassay (CLIA) kit (Autobio Diagnostics Co., Zhengzhou, China, Catalog number: CL0310-2) was used to measure the levels of secreted HBV antigens semi-quantitatively. For the detection 50 μL/well culture supernatant was used and HBsAg was quantified using HBsAg chemiluminescence immunoassay (CLIA) kit (Autobio Diagnostics Co., Zhengzhou, China, Catalog number: CL0310-2), 50 μL of the supernatant was transferred to the CLIA assay plate and 50 μL of enzyme conjugate reagent was added into each well. The plates were sealed and gently agitated for 1 hour at room temperature. The supernatant-enzyme-mixture was discarded and wells were washed 6 times with 300 μL of PBS. The residual liquid was removed by plating the CLIA plate […] on absorbent tissue paper. 25 μL of substrates A and B were added to each well. Luminance was measured using a luminometer (Mithras LB 940 Multimode Microplate Reader) after 10 minutes incubation, Dose-response curves were generated and the IC50 value was extrapolated by using the E-WorkBook Suite (ID Business Solutions Ltd., Guildford, UK). The IC50 was defined as the compound concentration (or conditioned media log dilution) at which HBsAg secretion was reduced by 50% compared to the no drug control.
The compounds of the present invention were tested for their capacity to inhibit HBsAg as described herein. The Examples were tested in the above assay and found to have IC50 of about 0.001 μM to about 50.0 μM.

Row | SMILES | IC50
1 | COc1cc2c(cc1OC)-c1cc(=O)c(C(=O)O)cn1CCC2 [Example 1, 10,11-Dimethoxy-2-oxo-7,8-dihydro-6H-pyrido[2,1-a][2]benzazepine-3-carboxylic acid] | 35400 nM
2 | CCC1CCc2cc(OCc3ccccc3)c(OC)cc2-c2cc(=O)c(C(=O)O)cn21 (stereo not shown) [Example 2, 10-Benzyloxy-6-ethyl-11-methoxy-2-oxo-7,8-dihydro-6H-pyrido[2,1-a][2]benzazepine-3-carboxylic acid] | 1080 nM
3 | CCC1CCc2cc(OCCCOC)c(OC)cc2-c2cc(=O)c(C(=O)O)cn21 (stereo not shown) [Example 3, 6-Ethyl-11-methoxy-10-(3-methoxypropoxy)-2-oxo-7,8-dihydro-6H-pyrido[2,1-a][2]benzazepine-3-carboxylic acid] | 419 nM
4 | CCC1CCc2cc(OCCCCCCNC(=O)OC(C)(C)C)c(OC)cc2-c2cc(=O)c(C(=O)O)cn21 (stereo not shown) [Example 4, 10-[6-(Tert-butoxycarbonylamino)hexoxy]-6-ethyl-11-methoxy-2-oxo-7,8-dihydro-6H-pyrido[2,1-a][2]benzazepine-3-carboxylic acid] | 619 nM
5 | CCC1CCc2cc(OCCCCCCN)c(OC)cc2-c2cc(=O)c(C(=O)O)cn21 (stereo not shown) [Example 5, 10-(6-Aminohexoxy)-6-ethyl-11-methoxy-2-oxo-7,8-dihydro-6H-pyrido[2,1-a][2]benzazepine-3-carboxylic acid] | 602 nM
6 | CCC1CCc2cc(OCCCCCCNC(C)=O)c(OC)cc2-c2cc(=O)c(C(=O)O)cn21 (stereo not shown) [Example 6, 10-(6-Acetamidohexoxy)-6-ethyl-11-methoxy-2-oxo-7,8-dihydro-6H-pyrido[2,1-a][2]benzazepine-3-carboxylic acid] | 12400 nM
7 | CCC1CCc2cc(OCCCCCCNS(C)(=O)=O)c(OC)cc2-c2cc(=O)c(C(=O)O)cn21 (stereo not shown) [Example 7, 6-Ethyl-10-[6-(methanesulfonamido)hexoxy]-11-methoxy-2-oxo-7,8-dihydro-6H-pyrido[2,1-a][2]benzazepine-3-carboxylic acid] | 5870 nM
8 | CCC1CCc2cc(OCCCSC)c(OC)cc2-c2cc(=O)c(C(=O)O)cn21 (stereo not shown) [Example 8, 6-Ethyl-11-methoxy-10-(3-methylsulfanylpropoxy)-2-oxo-7,8-dihydro-6H-pyrido[2,1-a][2]benzazepine-3-carboxylic acid] | 1890 nM
9 | CCC1CCc2cc(OCCCS(C)(=O)=O)c(OC)cc2-c2cc(=O)c(C(=O)O)cn21 (stereo not shown) [Example 9, 6-Ethyl-11-methoxy-10-(3-methylsulfonylpropoxy)-2-oxo-7,8-dihydro-6H-pyrido[2,1-a][2]benzazepine-3-carboxylic acid] | 1070 nM
10 | CCC1CCc2cc(OCC(F)(F)F)c(OC)cc2-c2cc(=O)c(C(=O)O)cn21 (stereo not shown) [Example 10, 6-Ethyl-11-methoxy-2-oxo-10-(2,2,2-trifluoroethoxy)-7,8-dihydro-6H-pyrido[2,1-a][2]benzazepine-3-carboxylic acid] | 558 nM

Source: patent US10336751B2, “Tricyclic 4-pyridone-3-carboxylic acid derivatives for the treatment and prophylaxis of hepatitis B virus infection” (priority 2016, dated 2019)
